These results are taken from the RepoRT retention time repository (doi:10.1016/j.jchromb.2020.122105).

Common to all, as to conditions: stereoisomer not certain
A short description of data set [1]: RP, Waters CORTECS T3, 100 × 2.1 mm, 2.7 µm, 0.15 mL/min, estimated dead time 1.5 min; A: water + 0.1% formic acid, pH 3; B: methanol + 0.1% formic acid, pH 3; gradient (min/%B) 0/5 5/5 25/95 25.1/100 35/100 35.1/5 45/5.
Data set [2] can be described thus: HILIC, Merck SeQuant ZIC-HILIC, 150 × 2.1 mm, 5 µm, 0.75 mL/min, estimated dead time 0.44 min; A: water + 0.1% acetic acid + 10 mM ammonium acetate, pH 4; B: 5% water + 95% acetonitrile + 0.1% acetic acid + 10 mM ammonium acetate, pH 4; gradient (min/%B) 0/95 5/95 20/57 25/57 30/95 40/95.
Data set [3] is described as follows: RP, Waters ACQUITY UPLC BEH C18, 100 × 2.1 mm, 1.7 µm, 0.1 mL/min, estimated dead time 2.2 min; A: water + 0.1% formic acid, pH 3; B: methanol + 0.1% formic acid, pH 3; gradient (min/%B) 0/5 5/5 25/95 25.1/100 35/100 35.1/5 45/5.
Data set [4] in a line: HILIC, Merck SeQuant ZIC-HILIC, 150 × 2.1 mm, 5 µm, 0.75 mL/min, estimated dead time 0.44 min; A: water + 10 mM ammonium formate, pH 6; B: 5% water + 95% acetonitrile + 10 mM ammonium formate, pH 6; gradient (min/%B) 0/95 5/95 20/57 25/57 30/95 40/95.
The nature of data set [5]: RP, Waters ACQUITY UPLC BEH C18, 100 × 2.1 mm, 1.7 µm, 0.2 mL/min, estimated dead time 1.1 min; A: water + 0.1% formic acid, pH 3; B: methanol + 0.1% formic acid, pH 3; gradient (min/%B) 0/5 5/5 25/100 30/100 30.1/5 35/5.
Data set [6] is described as follows: RP, Waters CORTECS T3, 100 × 2.1 mm, 2.7 µm, 0.25 mL/min, estimated dead time 0.88 min; A: water + 0.1% formic acid, pH 3; B: methanol + 0.1% formic acid, pH 3; gradient (min/%B) 0/5 5/5 25/95 25.1/100 35/100 35.1/5 45/5.
Data set [7] can be described thus: RP, Waters ACQUITY UPLC BEH C18, 100 × 2.1 mm, 1.7 µm, 0.2 mL/min, estimated dead time 1.1 min; A: water + 0.025% formic acid + 20 mM ammonium acetate + 0.055% ammonium hydroxide, pH 7; B: methanol; gradient (min/%B) 0/5 5/5 25/100 30/100 30.1/5 35/5.
The nature of data set [8]: HILIC, Waters XBridge BEH Amide, 100 × 2.1 mm, 2.5 µm, 0.5 mL/min, estimated dead time 0.44 min; A: water + 0.1% acetic acid + 10 mM ammonium acetate, pH 4; B: 5% water + 95% acetonitrile + 0.1% acetic acid + 10 mM ammonium acetate, pH 4; gradient (min/%B) 0/95 5/95 20/57 25/57 30/95 40/95.
The nature of data set [9]: RP, Waters CORTECS T3, 100 × 2.1 mm, 2.7 µm, 0.2 mL/min, estimated dead time 1.1 min; A: water + 0.1% formic acid, pH 3; B: methanol + 0.1% formic acid, pH 3; gradient (min/%B) 0/0 1/0 6/5 30/100 35/100 35.1/0 40/0.
Data set [10] is described as follows: RP, Waters CORTECS T3, 100 × 2.1 mm, 2.7 µm, 0.3 mL/min, estimated dead time 0.73 min; A: water + 0.1% formic acid, pH 3; B: methanol + 0.1% formic acid, pH 3; gradient (min/%B) 0/0 1/0 6/5 30/100 35/100 35.1/0 40/0.
Data set [11] can be described thus: RP, Waters CORTECS T3, 100 × 2.1 mm, 2.7 µm, 0.3 mL/min, estimated dead time 0.73 min; A: water + 0.1% formic acid, pH 3; B: methanol + 0.1% formic acid, pH 3; gradient (min/%B) 0/0 5/0 25/100 30/100 30.1/0 35/0.
Data set [12] in a line: RP, Thermo Scientific Hypercarb, 150 × 2.1 mm, 5 µm, 0.1 mL/min, estimated dead time 3.3 min; A: water + 0.1% formic acid, pH 3; B: methanol + 0.1% formic acid, pH 3; gradient (min/%B) 0/5 5/5 20/100 35/100 35.1/5 45/5.
Data set [13] in a line: RP, Waters CORTECS T3, 100 × 2.1 mm, 2.7 µm, 0.2 mL/min, estimated dead time 1.1 min; A: water + 0.1% formic acid, pH 3; B: methanol + 0.1% formic acid, pH 3; gradient (min/%B) 0/5 5/5 25/95 25.1/100 35/100 35.1/5 45/5.
Data set [14] can be described thus: RP, Waters ACQUITY UPLC BEH C18, 100 × 2.1 mm, 1.7 µm, 0.1 mL/min, estimated dead time 2.2 min; A: water + 0.1% formic acid, pH 3; B: methanol + 0.1% formic acid, pH 3; gradient (min/%B) 0/5 5/5 25/100 30/100 30.1/5 35/5.
Data set [15] in a line: RP, Waters CORTECS T3, 100 × 2.1 mm, 2.7 µm, 0.2 mL/min, estimated dead time 1.1 min; A: water + 0.045% formic acid + 0.11% ammonium hydroxide, pH 7; B: methanol; gradient (min/%B) 0/5 5/5 25/95 25.1/100 35/100 35.1/5 45/5.
Data set [16] in a line: RP, Waters CORTECS T3, 100 × 2.1 mm, 2.7 µm, 0.1 mL/min, estimated dead time 2.2 min; A: water + 0.1% formic acid, pH 3; B: methanol + 0.1% formic acid, pH 3; gradient (min/%B) 0/0 1/0 6/5 30/100 35/100 35.1/0 40/0.
The nature of data set [17]: RP, Waters CORTECS T3, 100 × 2.1 mm, 2.7 µm, 0.3 mL/min, estimated dead time 0.73 min; A: water + 0.1% formic acid, pH 3; B: methanol + 0.1% formic acid, pH 3; gradient (min/%B) 0/0 5/0 25/100 30/100 30.1/0 35/0. The source holds these as a separate data set.
The nature of data set [18]: RP, Waters CORTECS T3, 100 × 2.1 mm, 2.7 µm, 0.25 mL/min, estimated dead time 0.88 min; A: water + 0.1% formic acid, pH 3; B: methanol + 0.1% formic acid, pH 3; gradient (min/%B) 0/0 1/0 6/5 30/100 35/100 35.1/0 40/0.
Data set [19] is described as follows: RP, Waters CORTECS T3, 100 × 2.1 mm, 2.7 µm, 0.3 mL/min, estimated dead time 0.73 min; A: water + 0.1% formic acid, pH 3; B: methanol + 0.1% formic acid, pH 3; gradient (min/%B) 0/5 5/5 25/100 30/100 30.1/5 35/5.
The nature of data set [20]: RP, Waters CORTECS T3, 100 × 2.1 mm, 2.7 µm, 0.3 mL/min, estimated dead time 0.73 min; A: water + 0.1% formic acid, pH 3; B: methanol + 0.1% formic acid, pH 3; gradient (min/%B) 0/5 5/5 25/95 25.1/100 35/100 35.1/5 45/5.
The nature of data set [21]: RP, Waters ACQUITY UPLC BEH C18, 100 × 2.1 mm, 1.7 µm, 0.1 mL/min, estimated dead time 2.2 min; A: water + 0.045% formic acid + 0.11% ammonium hydroxide, pH 7; B: methanol; gradient (min/%B) 0/5 5/5 25/95 25.1/100 35/100 35.1/5 45/5.
Data set [22] in a line: RP, Waters CORTECS T3, 100 × 2.1 mm, 2.7 µm, 0.3 mL/min, estimated dead time 0.73 min; A: water + 0.1% formic acid, pH 3; B: methanol + 0.1% formic acid, pH 3; gradient (min/%B) 0/0 1/0 6/5 30/100 35/100 35.1/0 40/0. The source holds these as a separate data set.
The nature of data set [23]: RP, Waters CORTECS T3, 100 × 2.1 mm, 2.7 µm, 0.15 mL/min, estimated dead time 1.5 min; A: water + 0.1% formic acid, pH 3; B: methanol + 0.1% formic acid, pH 3; gradient (min/%B) 0/0 1/0 6/5 30/100 35/100 35.1/0 40/0.
Data set [24] is described as follows: RP, Waters ACQUITY UPLC BEH C18, 100 × 2.1 mm, 1.7 µm, 0.2 mL/min, estimated dead time 1.1 min; A: water + 0.025% formic acid + 20 mM ammonium acetate + 0.055% ammonium hydroxide, pH 7; B: methanol; gradient (min/%B) 0/5 5/5 25/100 30/100 30.1/5 35/5. The source holds these as a separate data set.
Data set [25] can be described thus: RP, Waters CORTECS T3, 100 × 2.1 mm, 2.7 µm, 0.2 mL/min, estimated dead time 1.1 min; A: water + 0.1% formic acid, pH 3; B: methanol + 0.1% formic acid, pH 3; gradient (min/%B) 0/0 1/0 6/5 30/100 35/100 35.1/0 40/0. The source holds these as a separate data set.

In the case of `CC(=O)NC(CCC(=O)O)C(=O)O` (racemic) [N-ACETYL-DL-GLUTAMIC ACID], the LC retention time in [1] is 2.89 min; in data set [2], 13.6 min; in [3] it was 4.43 min; in data set [4], 14 min; in data set [5], 2.27 min; in data set [6], 1.77 min. Further, the LC retention time in data set [7] is 1.36 min; in data set [8], 13.6 min; in data set [9], 3.1 min; in [10], 2.22 min; in [11], 2.22 min; in data set [12], 24 min.

With `Nc1nc2c(ncn2C2OC(CO)C(O)C2O)c(=O)[nH]1` (stereo unspecified) [GUANOSINE], the LC retention time is 10.9 min in data set [13]; 4.79 min in data set [1]; 10.1 min in data set [2]; 2.7 min in data set [3]; 10.5 min in data set [4]; 3.31 min in [5]. Further, the LC retention time in data set [6] was 2.95 min; in data set [7], 1.76 min; in data set [14], 2.74 min; in data set [8] it was 10.3 min; in [9], 7.02 min; in data set [10], 5.43 min.

With `CC(=O)N[C@@H](CC(C)C)C(=O)O` [N-ACETYL-L-LEUCINE], the LC retention time in data set [13] was 18.4 min; in data set [1], 14.3 min; in [2], 5.95 min; in data set [3], 17.2 min; in [4] it was 6.56 min; in data set [5], 13.3 min. Besides, the LC retention time is 12 min in data set [6]; 6.59 min in data set [7]; 7.4 min in data set [8]; 14.6 min in data set [9]; 12.8 min in data set [10]; 12.2 min in data set [11].

Consider `CC(=O)N[C@@H](Cc1ccccc1)C(=O)O` [N-ACETYL-L-PHENYLALANINE], for which the LC retention time in data set [15] was 9.59 min; in data set [13] it was 19 min; in data set [1], 14.9 min; in data set [2] it was 5.57 min; in data set [3] it was 17.7 min; in data set [16], 13.6 min. The LC retention time in [4] was 6.61 min; in data set [17], 12.8 min; in data set [18] it was 14.4 min; in data set [5], 13.8 min; in [6], 12.7 min; in data set [7], 8.81 min. Moreover, the LC retention time in data set [19] was 11.8 min; in data set [20] it was 12 min; in data set [21], 13.6 min; in data set [14], 17.3 min; in data set [8], 6.98 min; in data set [9], 15.3 min. Moreover, the LC retention time is 13.6 min in [10], 12.8 min in data set [11] and 13.6 min in [22].

On to `CC(=O)NCCc1c[nH]c2ccc(O)cc12` [N-ACETYLSEROTONIN], for which the LC retention time in [15] was 10.7 min; in data set [13] it was 15.3 min; in data set [23], 13.3 min; in [1] it was 11.8 min; in data set [2], 1.09 min; in [3], 13.7 min. Also, the LC retention time was 10.6 min in [16]; 10.6 min in [24]; 1.15 min in data set [4]; 10.4 min in data set [17]; 11.3 min in [18]; 10.2 min in [7]. Also, the LC retention time was 9.2 min in [19]; 9.27 min in data set [20]; 13.7 min in [21]; 13.6 min in [14]; 0.95 min in [8]; 12.1 min in data set [25]. For the same compound, in data set [22], the LC retention time is 10.8 min.
